From ChEMBL document CHEMBL6096706, “Discovery of WDR5-MLL1 and HDAC Dual-Target Inhibitors for the Treatment of Acute Myeloid Leukemia” (J Med Chem, 2025)

Experiments:
MV4-11 = experiment: Induction of apoptosis in human MV4-11 cells assessed as early apoptotic cells at 600 nM incubated for 72 hrs in presence of vorinostat by Annexin V/PI staining based flow cytometry analysis (reference value: 0.76 %); type: functional
[1] = target: T1, Protein deacetylase HDAC6 (Homo sapiens, UniProt Q9UBN7); experiment: Inhibition of HDAC6 (unknown origin) by fluorescence based assay
T1 sequence (Q9UBN7 whole entry): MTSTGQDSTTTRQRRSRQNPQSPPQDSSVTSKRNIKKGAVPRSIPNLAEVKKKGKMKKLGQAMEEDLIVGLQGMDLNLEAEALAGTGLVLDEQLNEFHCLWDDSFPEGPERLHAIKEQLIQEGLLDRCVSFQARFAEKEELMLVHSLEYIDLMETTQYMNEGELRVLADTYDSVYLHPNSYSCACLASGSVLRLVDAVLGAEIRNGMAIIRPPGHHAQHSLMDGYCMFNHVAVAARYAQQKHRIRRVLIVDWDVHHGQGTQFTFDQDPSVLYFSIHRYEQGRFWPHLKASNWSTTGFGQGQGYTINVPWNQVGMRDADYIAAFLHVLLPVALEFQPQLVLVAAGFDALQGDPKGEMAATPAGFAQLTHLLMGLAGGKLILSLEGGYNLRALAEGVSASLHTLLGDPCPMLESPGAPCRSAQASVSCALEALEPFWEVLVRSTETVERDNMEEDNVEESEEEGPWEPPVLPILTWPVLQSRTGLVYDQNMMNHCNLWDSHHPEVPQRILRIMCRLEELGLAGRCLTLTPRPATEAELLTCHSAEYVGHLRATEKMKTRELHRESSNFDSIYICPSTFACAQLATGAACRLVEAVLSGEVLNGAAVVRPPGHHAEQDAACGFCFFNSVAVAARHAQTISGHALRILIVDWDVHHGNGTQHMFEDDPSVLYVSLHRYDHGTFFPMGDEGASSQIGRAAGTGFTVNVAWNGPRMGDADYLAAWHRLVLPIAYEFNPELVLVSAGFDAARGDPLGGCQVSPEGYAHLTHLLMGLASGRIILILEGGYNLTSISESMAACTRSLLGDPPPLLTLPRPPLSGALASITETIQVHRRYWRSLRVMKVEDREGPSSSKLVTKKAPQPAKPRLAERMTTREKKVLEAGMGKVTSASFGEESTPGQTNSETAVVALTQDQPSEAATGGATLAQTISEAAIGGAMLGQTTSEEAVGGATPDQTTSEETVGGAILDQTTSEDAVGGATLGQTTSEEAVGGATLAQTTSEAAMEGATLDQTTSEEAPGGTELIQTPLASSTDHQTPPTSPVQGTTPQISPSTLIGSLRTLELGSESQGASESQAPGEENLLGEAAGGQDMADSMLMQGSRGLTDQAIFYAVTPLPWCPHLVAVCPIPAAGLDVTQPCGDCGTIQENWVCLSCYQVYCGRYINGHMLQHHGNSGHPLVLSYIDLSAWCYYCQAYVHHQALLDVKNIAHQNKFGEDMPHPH

[2] = Toxicity in mouse implanted in human MV4-11 cells assessed as animal death at 10 to 30 mg/kg, ip administered daily for 17 days; type: organism-based; details: in vivo, 408 h, dose 10-30 mg/kg, time 17 day

| SMILES | Activity (MV4-11) [%] | IC50 [1] [nM] | Activity [2] |
| --- | --- | --- | --- |
| Cc1c(F)c(N)cc(C(=O)Nc2cc(-c3ccc(C(=O)N4CCOCC4)cc3)ccc2N2CCN(C)CC2)c1Cl | 69.5 |  |  |
| Cc1c(F)c(N)cc(C(=O)Nc2cc(-c3ccc(C(=O)NCc4ccc(/C=C/C(=O)NO)cc4)cc3)ccc2N2CCN(C)CC2)c1Cl |  | 46 | Non-toxic |
